The target in experiment [1] is T1, 5α-reductase (Homo sapiens, UniProt P31213).
T1 construct: particulate fraction from homogenates of hyperplastic human prostates; from tissue; host or cells: hyperplastic human prostate, particulate fraction (140,000×g pellet)
T1 sequence (P31213 1-254): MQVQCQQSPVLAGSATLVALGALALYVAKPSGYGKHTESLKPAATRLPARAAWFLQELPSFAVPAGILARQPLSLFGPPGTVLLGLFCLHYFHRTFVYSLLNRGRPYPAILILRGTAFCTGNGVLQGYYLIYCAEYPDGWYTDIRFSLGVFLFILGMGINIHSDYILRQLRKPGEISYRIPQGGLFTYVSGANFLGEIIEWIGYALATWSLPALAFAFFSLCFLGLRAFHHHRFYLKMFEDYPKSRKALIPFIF
As to the kind of experiment: In vitro assay of 5α-reductase inhibition (particulate fraction from homogenates of hyperplastic human prostates, [14C] testosterone). Format: biochemical. To be noted: human prostate particulate fraction, pH 5.5, 1 μM [14C] testosterone, 30 min, 37° C.
Experimental: Inhibition of 5α-reductase was evaluated using the particulate fraction from homogenates of hyperplastic human prostates as the enzyme source. The particulate fraction was prepared centrifuging prostate homogenate at 140,000×g. The resulting pellet, washed several times, was resuspended in buffer and stored at -80° C. in aliquots containing ≈10 mg protein/mi.
The assay for 5α-reductase was done in a final volume of 0.5 ml, in 40 mM TRIS-HCl buffer pH 5.5, containing 1 mM dithiothreitol, 5 mM NADPH, 1 μM [^14 C] testosterone, an aliquot of the enzyme preparation and various of the inhibitors. After 30 min incubation at 37° C. the reaction was terminated by addition of 2 ml cold diethyl ether and the organic phase was separated, evaporated under N2 and resuspended in ethyl acetate. Testosterone metabolites in this extract were separated in TLC on silica gel F 254 plates (Merck), using chloroform, acetone and n-hexane (2:1:2) as developing solvent system.
Radioactivity on the plate was scanned and analyzed from quantitative plots printed by a TLC-analyzer (Berthold). The fractional 5α-reduction of testosterone was calculated by relating the ^14 C-radioactivity in the 5α-reduced metabolites (5α-dihydrotestosterone, 3α- and 3β-androstanediols) regions to the total radioactivity in the testosterone and 5α-reduced metabolites regions. […]

Experiment [2] deals with 5α-reductase. As to the kind of experiment: In vivo inhibition of 5α-reductase (antiandrogenic effect, ventral prostate weight in castrated, testosterone-implanted rats). As to conditions: rat, once daily for 7 consecutive days. How it is done: The standard test for the antiandrogenic effect in rats was used. Prepuberal 22-day-old male rats were castrated via scrotal incision under light ether anaesthesia. […] Control animals (testosterone controls) received the vehicle (0.5 ml/kg of 0.5% Methocel/0.4% Tween 80). One group of castrated rats was not implanted with testosterone (castrated controls).
The mean percentage of inhibition of the T-induced hypertrophic response of the prostate was calculated according to the following formula: […]

Structures are written as SMILES.

Compound `C[C@]12C=CC(=O)N[C@@H]1CC[C@@H]1[C@@H]2CC[C@]2(C)[C@@H](C(=O)NC(c3ccccc3)C(F)(F)F)CC[C@@H]12` (stereo partly drawn) [Compound 40, N-(2,2,2-trifluorophenylethyl) 3-oxo-4-aza-5α-androst-1-ene-17β-carboxamide] returned a 50% inhibitory concentration (IC50) at 5α-reductase [1] of 0.021 µM. In the experiment on 5α-reductase [2], the “% INHIBITION OF PROSTATE WEIGHT AT 3 mg/kg/day p.o.” value is 51%.

Broadly, the IC50 is the midpoint of a concentration-inhibition curve. Lower therefore signals higher potency.

Source of the values: patent publication US5407939A, “Fluorinated 17 β-substituted 4-aza-5 α-androstan-3-one derivatives” (Farmitalia Carlo Erba S.R.L., priority 1992, dated 1995).
